Assays:
Assay type in all cases: functional
NCI-H226 = experiment: Growth inhibition of human NCI-H226 cells after 48 hrs by SRB assay; conditions: NCI-H226, 48 h
OVCAR-8 = experiment: Growth inhibition of human OVCAR8 cells after 48 hrs by SRB assay; conditions: OVCAR-8, 48 h
HCT-15 = experiment: Growth inhibition of human HCT15 cells after 48 hrs by SRB assay; conditions: HCT-15, 48 h
SN12C = experiment: Growth inhibition of human SN12C cells after 48 hrs by SRB assay
SF-268 = experiment: Growth inhibition of human SF268 cells after 48 hrs by SRB assay; conditions: SF-268, 48 h
MDA-MB-468 = experiment: Growth inhibition of human MDA-MB-468 cells after 48 hrs by SRB assay; conditions: MDA-MB-468, 48 h
[1] = Growth inhibition of human RPMI18226 cells after 48 hrs by SRB assay; conditions: RPMI18226, 48 h
LOX IMVI = experiment: Growth inhibition of human LOXIMVI cells after 48 hrs by SRB assay
HT-29 = experiment: Growth inhibition of human HT-29 cells after 48 hrs by SRB assay; conditions: HT-29, 48 h
U-251 = experiment: Growth inhibition of human U251 cells after 48 hrs by SRB assay; conditions: U-251, 48 h
ACHN = experiment: Growth inhibition of human ACHN cells after 48 hrs by SRB assay
[2] = Growth inhibition of human Hs 578T cells after 48 hrs by SRB assay
HCT-116 = experiment: Growth inhibition of human HCT116 cells after 48 hrs by SRB assay; conditions: HCT-116, 48 h
HCC 2998 = experiment: Growth inhibition of human HCC2998 cells after 48 hrs by SRB assay; conditions: HCC 2998, 48 h
IGROV-1 = experiment: Growth inhibition of human IGROV1 cells after 48 hrs by SRB assay; conditions: IGROV-1, 48 h
UO-31 = experiment: Growth inhibition of human UO31 cells after 48 hrs by SRB assay; conditions: UO-31, 48 h
EKVX = experiment: Growth inhibition of human EKVX cells after 48 hrs by SRB assay
TK-10 = experiment: Growth inhibition of human TK10 cells after 48 hrs by SRB assay; conditions: TK-10, 48 h
NCI-H23 = experiment: Growth inhibition of human NCI-H23 cells after 48 hrs by SRB assay; conditions: NCI-H23, 48 h
UACC-62 = experiment: Growth inhibition of human UACC62 cells after 48 hrs by SRB assay; conditions: UACC-62, 48 h
MDA-MB-435 = experiment: Growth inhibition of human MDA-MB-435 cells after 48 hrs by SRB assay; conditions: MDA-MB-435, 48 h
PC-3 = experiment: Growth inhibition of human PC3 cells after 48 hrs by SRB assay; conditions: PC-3, 48 h
SW-620 = experiment: Growth inhibition of human SW620 cells after 48 hrs by SRB assay; conditions: SW-620, 48 h
MDA-MB-231 = experiment: Growth inhibition of human MDA-MB-231 cells after 48 hrs by SRB assay; conditions: MDA-MB-231, 48 h
HOP-62 = experiment: Growth inhibition of human HOP62 cells after 48 hrs by SRB assay; conditions: HOP-62, 48 h
SR = experiment: Growth inhibition of human SR cells after 48 hrs by SRB assay
DU-145 = experiment: Growth inhibition of human DU145 cells after 48 hrs by SRB assay; conditions: DU-145, 48 h
OVCAR-5 = experiment: Growth inhibition of human OVCAR5 cells after 48 hrs by SRB assay; conditions: OVCAR-5, 48 h
HL-60(TB) = experiment: Growth inhibition of human HL-60(TB) cells after 48 hrs by SRB assay; conditions: HL-60, 48 h
Malme-3M = experiment: Growth inhibition of human MALME-3M cells after 48 hrs by SRB assay
KM12 = experiment: Growth inhibition of human KM12 cells after 48 hrs by SRB assay; conditions: KM12, 48 h
SK-MEL-5 = experiment: Growth inhibition of human SK-MEL-5 cells after 48 hrs by SRB assay; conditions: SK-MEL-5, 48 h
K562 = experiment: Growth inhibition of human K562 cells assessed as cell growth at 10^-5 M after 48 hrs by SRB assay; conditions: K562, 48 h, read-out: Activity
[3] = read-out: LC50 (the source's name)

O=C(CO[N+](=O)[O-])Nc1ccc(C(=O)/C=C/c2ccc(Cl)cc2)cc1
GI50 (NCI-H226): 5.15 µM
TGI (NCI-H226): 29 µM
CC50 (NCI-H226; [3]): > 100 µM
GI50 (OVCAR-8): 3.24 µM
TGI (OVCAR-8): 14 µM
CC50 (OVCAR-8; [3]): 63 µM
GI50 (HCT-15): 2.03 µM
TGI (HCT-15): 6.53 µM
CC50 (HCT-15; [3]): 59.7 µM
GI50 (SN12C): 3.15 µM
TGI (SN12C): 14.1 µM
CC50 (SN12C; [3]): 49.6 µM
GI50 (SF-268): 2.62 µM
TGI (SF-268): 11.7 µM
CC50 (SF-268; [3]): 38 µM
GI50 (MDA-MB-468): 2.06 µM
TGI (MDA-MB-468): 5.07 µM
CC50 (MDA-MB-468; [3]): 17.1 µM
GI50 [1]: 1.41 µM
TGI [1]: 8.36 µM
CC50 [1, 3]: > 100 µM
GI50 (LOX IMVI): 1.59 µM
TGI (LOX IMVI): 3.51 µM
CC50 (LOX IMVI; [3]): 7.74 µM
GI50 (HT-29): 2.36 µM
TGI (HT-29): 6.36 µM
CC50 (HT-29; [3]): > 100 µM
GI50 (U-251): 1.48 µM
TGI (U-251): 3.15 µM
CC50 (U-251; [3]): 6.68 µM
GI50 (ACHN): 3.3 µM
TGI (ACHN): 17 µM
CC50 (ACHN; [3]): > 100 µM
GI50 [2]: 2.85 µM
TGI [2]: 14.2 µM
CC50 [2, 3]: > 100 µM
GI50 (HCT-116): 0.3 µM
TGI (HCT-116): 1.09 µM
CC50 (HCT-116; [3]): 3.55 µM
GI50 (HCC 2998): 1.75 µM
TGI (HCC 2998): 3.64 µM
CC50 (HCC 2998; [3]): 7.57 µM
GI50 (IGROV-1): 13.4 µM
TGI (IGROV-1): 30 µM
CC50 (IGROV-1; [3]): 67.4 µM
GI50 (UO-31): 1.52 µM
TGI (UO-31): 12.1 µM
CC50 (UO-31; [3]): 38.5 µM
GI50 (EKVX): 15 µM
TGI (EKVX): 74.6 µM
CC50 (EKVX; [3]): > 100 µM
GI50 (TK-10): 8.37 µM
TGI (TK-10): 25.1 µM
CC50 (TK-10; [3]): 68.2 µM
GI50 (NCI-H23): 4.55 µM
TGI (NCI-H23): 22.1 µM
CC50 (NCI-H23; [3]): 81.1 µM
GI50 (UACC-62): 2.76 µM
TGI (UACC-62): 11 µM
CC50 (UACC-62; [3]): 51.3 µM
GI50 (MDA-MB-435): 2.96 µM
TGI (MDA-MB-435): 11.2 µM
CC50 (MDA-MB-435; [3]): 59 µM
GI50 (PC-3): 2.74 µM
TGI (PC-3): 14.8 µM
CC50 (PC-3; [3]): 72.9 µM
GI50 (SW-620): 1.44 µM
TGI (SW-620): 2.88 µM
CC50 (SW-620; [3]): 5.77 µM
GI50 (MDA-MB-231): 5.39 µM
TGI (MDA-MB-231): 21.2 µM
CC50 (MDA-MB-231; [3]): 62 µM
GI50 (HOP-62): 3.11 µM
TGI (HOP-62): 9.73 µM
CC50 (HOP-62; [3]): 34.6 µM
GI50 (SR): 3.64 µM
TGI (SR): > 100 µM
CC50 (SR; [3]): > 100 µM
GI50 (DU-145): 3.41 µM
TGI (DU-145): 13.5 µM
CC50 (DU-145; [3]): 36.7 µM
GI50 (OVCAR-5): 14.8 µM
TGI (OVCAR-5): 36 µM
CC50 (OVCAR-5; [3]): 87.8 µM
GI50 (HL-60(TB)): 3.59 µM
TGI (HL-60(TB)): > 100 µM
CC50 (HL-60(TB); [3]): > 100 µM
GI50 (Malme-3M): 2.13 µM
TGI (Malme-3M): 6.61 µM
CC50 (Malme-3M; [3]): 76.2 µM
GI50 (KM12): 1.54 µM
TGI (KM12): 3.1 µM
CC50 (KM12; [3]): 6.23 µM
GI50 (SK-MEL-5): 4.23 µM
TGI (SK-MEL-5): 15.4 µM
CC50 (SK-MEL-5; [3]): 39.8 µM

O=C(CO[N+](=O)[O-])Nc1ccc(C(=O)/C=C/c2ccc3c(c2)OCO3)cc1
growth at 10 µM (K562): 59.1%

From ChEMBL document CHEMBL2040759, “Design, synthesis and anticancer activity of nitric oxide donating/chalcone hybrids” (2012)
